# According to patent US4461902A, “Thiazolidine derivatives and production thereof” (Takeda Chemical Industries, Ltd., priority 1982, dated 1984):
# Columns and labels:
# blood sugar = experiment: Hypoglycemic activity in mice (blood sugar by the glucose oxidase method); format: in vivo, KKA^y mice (female, 10 weeks of age); conditions: KKA^y mice; 0.02% in powder diet CE2 for 4 days; activity of test compound 1 regarded as 100
# Excerpt: KKA^y mice (female, 10 weeks of age, 5 mice/group) received ad libitum powder diet CE2 (CLEA JAPAN) containing 0.02% of the compounds indicated below in the table mixed therewith for 4 days. Water was available ad libitum throughout the period. Blood sample were taken from the orbital vein and assayed for blood sugar by the glucose oxidase method.
# Toxicity (LD50) in mice = conditions: mouse, in vivo
Molecule,Hypoglycemic activity (relative potency) (blood sugar),LD50 (Toxicity (LD50) in mice)
"5-[4-(2-hydroxy-1-methylcyclohexylmethoxy)benzyl]thiazolidine-2,4-dione [Test compound 4]",118,–
"C[C@@]1(COc2ccc(CC3SC(=O)NC3=O)cc2)CCC[C@@H](O)C1 (relative stereo) [Test compound 6, 5-[4-(t-3-hydroxy-1-methyl-r-1-cyclohexylmethoxy)benzyl]-thiazolidine-2,4-dione]",369,–
C[C@@]1(COc2ccc(CC3SC(=O)NC3=O)cc2)CCC[C@H](O)C1 (relative stereo) [compound 7],125,–
"CC1(COc2ccc(CC3SC(=O)NC3=O)cc2)CCCC(=O)C1 (stereo not drawn) [5-[4-(1-methyl-3-oxocyclohexylmethoxy)benzyl]thiazolidine-2,4-dione]",–,≥ 5000 mg/kg
"CC1(COc2ccc(CC3SC(=O)NC3=O)cc2)CCC(O)CC1 (stereo not drawn) [5-[4-(4-hydroxy-1-methylcyclohexylmethoxy)benzyl]thiazolidine-2,4-dione]",–,≥ 5000 mg/kg
"CC1(COc2ccc(CC3SC(=O)NC3=O)cc2)CCC(=O)CC1 (stereo not drawn) [Example 3, 5-[4-(1-methyl-4-oxocyclohexylmethoxy)benzyl]thiazolidine-2,4-dione]",–,≥ 5000 mg/kg
"CC1(COc2ccc(CC3SC(=O)NC3=O)cc2)CCCCC1=O (stereo not drawn) [Test compound 3, 5-[4-(1-methyl-2-oxocyclohexylmethoxy)-benzyl]thiazolidine-2,4-dione]",179,≥ 5000 mg/kg
CC1(COc2ccc(CC3SC(=O)NC3=O)cc2)CCCCC1O (stereo not drawn) [compound 4],114,–
